Test systems include NCI-H460 lung; SNB-75 CNS; KM12 colon; SK-OV-3 ovarian; SNB-19 CNS; SK-MEL-2 melanoma; HCT-15 colon; NCI-H23 lung; SK-MEL-5 melanoma; RPMI-8226 leukemia.
Experiment in all cases: growth of human tumour cells (NCI), 48 h

Each structure is given as a SMILES string.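 Tested at 5 concentrations; 48 h exposure; 96-well plates; endpoints linearly interpolated, else capped at highest concentration. Here, GI50 denotes the concentration required for 50% inhibition of growth. TGI marks complete inhibition of growth.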

Consider `COC1C(CN[N+](=O)CC2OC3OC(C)(C)OC3C2OC)OC2OC(C)(C)OC21` (stereo not given), for which the TGI in the test on NCI-H460 lung, in the test on SNB-75 CNS, with KM12 colon, in the test on SK-OV-3 ovarian, with SNB-19 CNS and in the test with SK-MEL-2 melanoma was more than 100 µM throughout. Further, the TGI in the test with HCT-15 colon, with NCI-H23 lung and in the test with SK-MEL-5 melanoma was more than 100 µM throughout.

Turning to `CN(C(=O)C12C3C4C1C1C2C3C41C(=O)C(C)(C)C)C(C)(C)C` (stereo not given), the TGI in the test with SNB-75 CNS, in the test on KM12 colon, in the test with RPMI-8226 leukemia, in the test on SK-OV-3 ovarian, with SNB-19 CNS and with SK-MEL-2 melanoma was more than 100 µM throughout. Besides, the TGI in the test with NCI-H23 lung and with SK-MEL-5 melanoma was more than 100 µM throughout.

Turning to `CC1OC(O[C@H]2C[C@@H](O)[C@]3(CO)[C@H]4[C@H](O)C[C@]5(C)[C@@H](C6=CC(=O)OC6)CC[C@]5(O)[C@@H]4CC[C@]3(O)C2)C(O)C(O)C1O` (stereo not given in full), the GI50 in the test with NCI-H460 lung is 19.1 µM; in the test with KM12 colon it was 17.8 µM; with RPMI-8226 leukemia it was 26.5 µM; in the test with SK-OV-3 ovarian it was 18.8 µM; in the test on SNB-19 CNS, 18.3 µM; in the test on SK-MEL-2 melanoma, 20.2 µM. In addition, the results for the GI50 with HCT-15 colon, in the test with NCI-H23 lung and with SK-MEL-5 melanoma were 17.3 µM, 21.5 µM and 17.7 µM, respectively. In addition, the TGI turned out to be 35.4 µM in the test with NCI-H460 lung; 32.3 µM in the test on KM12 colon; 54.5 µM in the test with RPMI-8226 leukemia; 33.8 µM in the test on SK-OV-3 ovarian; 33.6 µM in the test on SNB-19 CNS; 44.8 µM with SK-MEL-2 melanoma. The TGI worked out at 31.9 µM in the test on HCT-15 colon, 41.8 µM in the test with NCI-H23 lung and 35.2 µM in the test on SK-MEL-5 melanoma.

With `O=C1/C(=C/c2ccc(Cl)cc2Cl)N=C(c2ccccc2)N1Cc1ccco1`, the GI50 with NCI-H460 lung is 26.6 µM; in the test on KM12 colon it was 33.7 µM; in the test on RPMI-8226 leukemia, 23.8 µM; in the test on SK-MEL-2 melanoma, 15.8 µM; in the test with HCT-15 colon it was 37.7 µM; in the test with NCI-H23 lung it was 26.2 µM. Besides, the GI50 in the test with SK-MEL-5 melanoma is 15.8 µM. Further, the TGI with NCI-H460 lung is more than 100 µM; with KM12 colon it was more than 100 µM; in the test with RPMI-8226 leukemia, 92 µM; with SK-MEL-2 melanoma, 48.5 µM; in the test on HCT-15 colon, more than 100 µM; in the test on NCI-H23 lung, 81.6 µM. In the test with SK-MEL-5 melanoma, this compound yielded a TGI of 80.9 µM.

For `COc1ccc2cc1Oc1ccc(cc1)CC1c3cc(c(OC)cc3CCN1C)Oc1c3c(cc4c1C(C2)N(C)CC4)OCO3` (stereo not given), the TGI was 28.4 µM in the test on NCI-H460 lung; 15.3 µM in the test with SNB-75 CNS; 27.2 µM with KM12 colon; 31.5 µM in the test on SNB-19 CNS; 15.8 µM in the test with SK-MEL-2 melanoma; 14.7 µM with HCT-15 colon. Also, the TGI was 31.9 µM in the test with NCI-H23 lung and 25.1 µM in the test with SK-MEL-5 melanoma.

On to `COc1cc(C2c3cc4c(cc3C(NCC(O)CO)C3COC(=O)[C@H]23)OCO4)cc(OC)c1OC` (stereo not given in full), for which the TGI in the test on SNB-75 CNS, in the test with KM12 colon, in the test on RPMI-8226 leukemia, in the test with SK-OV-3 ovarian, with SNB-19 CNS and in the test on HCT-15 colon was more than 100 µM throughout. Besides, the TGI in the test with NCI-H23 lung came out at 0.797 µM.

Turning to `COc1ccc2[nH]c3c(C)c4c(c(C)c3c2c1)CN(C)CC4`, the TGI in the test on NCI-H460 lung was found to be 24.8 µM; in the test on SNB-75 CNS, 36.4 µM; with KM12 colon, 27.1 µM; with RPMI-8226 leukemia it was 93.3 µM; in the test with SK-OV-3 ovarian, 30 µM; in the test on SNB-19 CNS, 48.5 µM. The results for the TGI with SK-MEL-2 melanoma, in the test on HCT-15 colon and in the test on SK-MEL-5 melanoma were 31.5 µM, 35.3 µM and 32 µM, respectively.

For `Cc1ccc(-c2c3c([nH]c(=O)c2C#N)-c2cc(F)ccc2OC3)cc1`, the GI50 with NCI-H460 lung is 53.4 µM; in the test on SNB-75 CNS it was more than 100 µM; in the test with KM12 colon, 36.1 µM; in the test on RPMI-8226 leukemia it was 28.3 µM; with SK-OV-3 ovarian it was 97.6 µM; in the test with SNB-19 CNS it was 70.4 µM. The figures for the GI50 in the test with SK-MEL-2 melanoma, in the test with HCT-15 colon and with SK-MEL-5 melanoma were 55.4 µM, 91 µM and 41.8 µM, respectively. The TGI in the test with NCI-H460 lung, with SNB-75 CNS, in the test with KM12 colon, with RPMI-8226 leukemia, in the test on SK-OV-3 ovarian and in the test with SNB-19 CNS was more than 100 µM throughout. Besides, the TGI was 98.4 µM in the test on SK-MEL-2 melanoma, more than 100 µM in the test with HCT-15 colon and more than 100 µM in the test with SK-MEL-5 melanoma.

Take `COC(=O)C(/C(=N/NC(N)=O)C(=O)Nc1ccc(C)cc1)c1nc2ccc([N+](=O)[O-])cc2[nH]c1=O` (stereo not given): the TGI in the test on NCI-H460 lung, in the test on SNB-75 CNS, in the test on KM12 colon, in the test on RPMI-8226 leukemia, in the test on SK-OV-3 ovarian and in the test on SK-MEL-2 melanoma was more than 100 µM throughout. Also, the TGI in the test with HCT-15 colon and with SK-MEL-5 melanoma was more than 100 µM each time.

As for `COC(=O)CC(=O)C[P+](c1ccccc1)(c1ccccc1)c1ccccc1`, the TGI in the test on NCI-H460 lung, in the test on KM12 colon, with RPMI-8226 leukemia, with SK-OV-3 ovarian, in the test with SNB-19 CNS and in the test on SK-MEL-2 melanoma was more than 218 µM each time. In addition, the TGI with HCT-15 colon is 215 µM; with NCI-H23 lung it was more than 218 µM; in the test with SK-MEL-5 melanoma, more than 218 µM.

As for `CCOC(=O)NC(=O)c1cn(C2OC(COC(=O)CCCCCCCCC(=O)OCC3OC(n4cc(C(=O)NC(=O)OCC)c(=O)[nH]c4=O)C(O)C3O)C(O)C2O)c(=O)[nH]c1=O` (stereo not given), the TGI with NCI-H460 lung, with SNB-75 CNS, in the test on KM12 colon, in the test on RPMI-8226 leukemia, with SNB-19 CNS and in the test on SK-MEL-2 melanoma was more than 100 µM in each case. The TGI in the test on HCT-15 colon, in the test with NCI-H23 lung and with SK-MEL-5 melanoma was more than 100 µM each time.

As for `O=C1NNC=Nc2ccc(cc2)S(=O)(=O)c2ccc(cc2)N=CNNC1=O`, the TGI with NCI-H460 lung, in the test on KM12 colon, with SK-OV-3 ovarian, with SNB-19 CNS, in the test with SK-MEL-2 melanoma and in the test with HCT-15 colon was more than 100 µM throughout. Further, the TGI in the test with NCI-H23 lung and with SK-MEL-5 melanoma was more than 100 µM each time.

The record behind these values is PubChem BioAssay (NCI).
